Entries after “also recorded” stand apart in the source; their conditions may differ.
Key:
[1] = test system: ATDC5 micromasses; test: Glycosaminoglycan/proteoglycan quantification (Alcian blue staining) in ATDC5 micromasses; format: cell-based, mouse; details: for proteoglycans deposition in the extracellular matrix (Alcian blue, absorbance 650 nm): 300 ng/ml, 14 days, vs control cells
Protocol: (§1) Mouse chondrogenic ATDC5 cells (cartilage-specific chondrogenic strain) were cultured until confluent in maintenance medium containing 1:1 Dulbecco's modified Eagle's medium (DMEM): Ham's F-12 mix (Gibco) supplemented with 1% antibiotic (AB, Penicillin-Streptomycin, Gibco), 5% fetal bovine serum (FBS) (Gibco) and enriched with […] human transferrin (Sigma) and 30 nM sodium selenite (Sigma). Cells were trypsinized, washed and resuspended at 2.10^7 cells/mL in a chondrogenic medium made of maintenance medium enriched by 1× of ITS premix (resulting in 10 μg/mL insulin, 10 μg/mL human transferrin and 30 nM sodium selenite) (Life technologies). One droplet of cell suspension (10 μL) was placed at the center of each well of a 24-well plate. Cells were allowed to adhere for 2 h at 37° C., followed by addition of 500 μL chondrogenic medium supplemented. […] After 14 days, induction of hypertrophic differentiation and mineralization was induced by the mineralization medium made of α-MEM medium (Gibco) containing 1% AB, 5% FBS, 5 μg/ml human transferrin, 1× of ITS premix, 50 μg/ml ascorbic acid-2-phosphate (AA) (Sigma) and 10 mM β-glycerophosphate (BGP) (Sigma). […] Micromasses were collected at time points 1, 7, 14 21 and 28 days. Each time point was processed in three technical replicates. The medium was changed every other day. […] The genes of interest were articular chondrocyte markers (aggrecan, type 2 collagen (col2a1)), YAP/TAZ target genes (ctgf, ankrd) and pro-catabolic enzymes involved in the pathophysiology of OA (mmp3, mmp13).
Micromasses were washed with PBS and fixed with 95% ice-cold ethanol for 30 min at 4° C. for staining. After washing with distilled water, micromasses were stained with Alcian Blue (0.1% Alcian Blue 8GX, (Sigma)), washed three times with distilled water to remove unbound staining and air-dried.

[2] = test system: ATDC5 micromasses; test: qRT-PCR relative expression of genes of interest in ATDC5 micromass culture (chondrogenesis); format: cell-based, mouse; details: for MMP3 expression / YAP/TAZ target genes (CTGF) expression / articular chondrocyte extracellular matrix genes (type II collagen and aggrecan) expression: 300 ng/ml, differentiated 14 days with ITS, D14 vs CTL
Protocol: as §1
(§2) Total RNA was isolated using the Nucleospin RNA II kit (Macherey-Nagel) and reverse-transcribed using the MMLV reverse transcriptase (Thermo Fisher Scientific) following the manufacturers' instructions. The iTaq SYBR green qPCR master mix (BioRad) was used to assess the mRNA expression of target genes of interest. Primer sequences can be provided upon request. The following PCR conditions were used: 1 minute at 95° C., 40 cycles of 15 sec of denaturation at 95° C., followed by 1 minute of annealing-elongation at 60° C. Melting curve analysis was performed to determine the amplification of the specific product. Results were expressed using the comparative threshold method and were normalized to housekeeping gene PPIA (Peptidylprolyl Isomerase A) mRNA level for ATDC5 cells and MACs, or normalized to housekeeping gene S29 (ribosomal protein S29) mRNA level for MC3T3-E1 cells. The Via7 real-time PCR system (Thermo Fisher Scientific) was used for qRT-PCR measurements.
ATDC5 cells were cultured as micromasses and differentiated during 14 days using ITS as mentioned previously. […] RNA was isolated and qPCR were performed for different target genes, i.e. type II collagen and aggrecan (articular chondrocyte extracellular matrix), CTGF (YAP/TAZ target genes, indicators of the pathway activity) and MMP3 (cartilage degrading enzyme increased during osteoarthritis) (FIG. 15). Alcian blue staining was performed on the micromasses cultures, and biochemical quantitation was performed as previously described (FIG. 16).
ATDC5 cells were cultured as micromasses and differentiated during 14 days using ITS as mentioned previously. […] RNA was isolated and qPCR were performed for different target genes, i.e. type II collagen and aggrecan (articular chondrocyte extracellular matrix), CTGF (YAP/TAZ target gene, indicator of the pathway activity) and MMP3 (cartilage degrading enzyme increased during osteoarthritis) (FIG. 17). Alcian blue staining was performed on the micromasses cultures, and biochemical quantitation was performed as previously described (FIG. 18).

[3] = test system: mouse model of OA; details: mouse model of OA (Zhang et al., 2020); cited from earlier work
[4] = test system: mouse articular chondrocytes; test: qRT-PCR relative expression of genes of interest in mouse articular chondrocytes; format: cell-based; details: 300 ng/mL; 12 h of stimulation
Protocol: Mouse articular chondrocyte (MACs) were isolated from femoral heads by enzymatic digestion of whole femoral head caps. Samples were washed three times in 1% AB/phosphate buffered saline (PBS) and incubated with 2 mg/ml pronase (Roche)/DMEM-F12 at 37° C. for 1 h at slow rotation 100 rpm followed by a 3 h incubation with 1.5 mg/ml collagenase B (Roche)/DMEM-F12 at 37° C. Cells were seeded at 1×10^6 cells/[…], and cultured for 7 to 14 days in growth medium DMEM-F12, containing 1% AB (Gibco), 10% FBS (Gibco) and 5% L-glutamine (Thermoscientific). Passage 1 cells were utilized for the experiments. The culture supernatants were then harvested in order to perform MMP13 enzymatic activity assay. The evaluation of the expression of genes of interest included articular chondrocyte markers (aggrecan, type 2 collagen (col2a1)), YAP/TAZ target genes (ankrd) and pro-catabolic enzyme involved in the pathophysiology of OA (mmp3).
as §2

[5] = test system: Wnt/β-catenin pathway; test: Western blot of Wnt/β-catenin pathway activation in ATDC5 micromasses; format: cell-based, mouse; details: 300 ng/mL; day 21 and 28
Protocol: (§3) Mouse chondrogenic ATDC5 cells (cartilage-specific chondrogenic strain) were cultured until confluent in maintenance medium containing 1:1 Dulbecco's modified Eagle's medium (DMEM): Ham's F-12 mix (Gibco) supplemented with 1% antibiotic (AB, Penicillin-Streptomycin, Gibco), 5% fetal bovine serum (FBS) (Gibco) and enriched with […] human transferrin (Sigma) and 30 nM sodium selenite (Sigma). Cells were trypsinized, washed and resuspended at 2.10^7 cells/mL in a chondrogenic medium made of maintenance medium enriched by 1× of ITS premix (resulting in 10 μg/mL insulin, 10 μg/mL human transferrin and 30 nM sodium selenite) (Life technologies). One droplet of cell suspension (10 μL) was placed at the center of each well of a 24-well plate. Cells were allowed to adhere for 2 h at 37° C., followed by addition of 500 μL chondrogenic medium supplemented. […] After 14 days, induction of hypertrophic differentiation and mineralization was induced by the mineralization medium made of α-MEM medium (Gibco) containing 1% AB, 5% FBS, 5 μg/ml human transferrin, 1× of ITS premix, 50 μg/ml ascorbic acid-2-phosphate (AA) (Sigma) and 10 mM β-glycerophosphate (BGP) (Sigma). […] Micromasses were collected at time points 1, 7, 14 21 and 28 days. Each time point was processed in three technical replicates. The medium was changed every other day. […]

[6] = test system: 7×TCF/LEF response elements (Super 8×TOPFlash reporter); test: Promoter activation assay, Super 8×TOPFlash luciferase reporter in ATDC5 cells stimulated with Wnt3a; format: cell-based, mouse; details: peptide at 300 ng/ml; 10 or 100 ng/mL recombinant Wnt3a; 24 h
Protocol: Results were normalized by-cotransfecting each of the above plasmid with the tyrosine kinase-renilla luciferase plasmid (Promega). Transfections were carried out using the Dharmafect kb transfection reagent (Fisher Scientific). Briefly, reporter plasmids and transfection reagent were diluted in serum-free medium, and then the diluted Dharmafect kb was added to the plasmids for an incubation time of 10 minutes at room temperature. During that time, cells were rinsed with PBS and were placed in fresh maintenance medium. When incubation was over, the mixture of transfection reagent-plasmids was dispensed in each well. Stimulations (with Wnt3a and/or PEP16 and/or PEP16bis) were carried out the next day.

[7] = test system: CamKII pathway; test: Western blot of CamKII pathway activation in ATDC5 micromasses; format: cell-based, mouse; details: 300 ng/mL; day 21 and 28
Protocol: as §3

[8] = test system: alkaline phosphatase; details: 300 ng/ml, 1000 ng/ml; day 1 and day 21; vs CTL
Protocol: MC3T3-E1 cells were differentiated during 21 days as mentioned previously. […] Treated cells were compared to cells without any peptide stimulation (CTL).
We also assessed the specific alkaline phosphatase activity (μmol de para-nitrophenol/min/mg of protein). To that goal, we lysed the cells using 300 μL of a buffer containing 0.2 M Tris-Base, 1.6 mM MgCl2 pH 8.1 and 1% Triton X-100. Samples were then placed into tubes and put on ice for 30 min. During this time, we alternated periods of 30 sec vortex and 5 min on ice. Then, samples were sonicated, and centrifugated for 15 min at 13 000 g, 4° C. Supernatant was collected, and total protein concentration was evaluated using bicinchoninic acid assay.
Alkaline phosphatase activity was measured by placing the harvested supernatants in para-nitrophenyl phosphate (pNPP) solution. The alkaline phosphatase will cleave this substrate and generate para-nitrophenol (pNP).
A solution of 4 mg/mL of pNPP is prepared in buffer A (0.1 M glycine pH 10.5, 0.11% (m/v) Zinc acetate and 0.011% magnesium chloride (m/v)). […]
Absorbance is read at 410 nm on a Varioskan Flash apparatus. Alkaline phosphatase activity is calculated based on the standard curve (equation A410=a×quantity(ρNP)+b) with the following formula: activity=((A(410 nm)−b)×reaction volume)/(a×sample volume×reaction time)

[9] = test system: MC3T3-E1 cells; test: Quantification of mineralization (Alizarin Red) in MC3T3-E1 cells; format: cell-based, mouse; details: PEP12 at 300 and 1000 ng/ml; 21 days; absorbance 405 nm
Protocol: Each time point was processed in three technical replicates. The medium was changed every two days.
Cells were washed with PBS and fixed with 95% ice-cold ethanol for 30 min at 4° C. for staining. After washing with distilled water, cells were stained with Alizarin Red staining (1% Alizarin Red S (Sigma)), washed three times with distilled water to remove unbound staining and air-dried. Quantification of the staining was performed by dissolving the mineral content in 800 μl of 10% acetic acid for 30 minutes. Then, the wells were scraped, the content of each well was harvested in a separate tube and vortexed for 30 seconds. Each tube was heated at 85° C. for 10 minutes, then put on ice for 5 minutes. Finally, tubes were centriguated at 13000 rpm for 15 minutes, the liquid phase was harvested and mixed with 100 μl of 10% ammonium hydroxide. Absorbance was measured at 405 nm with a spectrophotometer (Varioskan Flash, Thermo Fisher Scientific).
The mineralization level was evaluated by a biochemical assay as previously described after 21 days of differentiation culture. Results are representative of 3 experiments.

[10] = 300 ng/mL, day 1, 21, 28, vs non-treated control

DRSGKKVKRWDMKSRH (PEP s) [PEP16 where L in position 3 and 14 were changed to a Serine]
proteoglycans deposition in the extracellular matrix (Alcian blue, absorbance 650 nm) [1]: significantly increase the proteoglycans deposition | MMP3 expression [2]: significant decrease | YAP/TAZ target genes (CTGF) expression [2]: significant decrease | articular chondrocyte extracellular matrix genes (type II collagen and aggrecan) expression [2]: significant increase

Verteporfin
cartilage homeostasis [3]: allowed preserving the cartilage homeostasis

DRAGKKVKRWDMKARH (PEP16bis) [mutant of PEP16, L in position 3 and 14 changed to A]
expression of Ankrd, a target gene of the Hippo/YAP/TAZ pathway [4]: capable of reducing the expression | glycosaminoglycans quantification (accumulation in the extracellular matrix) ([1]; 300 ng/mL, Alcian blue at day 28, absorbance 650 nm): significantly increased the accumulation of glycosaminoglycans | Wnt/β-catenin pathway activation (active protein form over total protein form) [5]: reduced in the activation of the Wnt/β-catenin pathway | activity of the canonical Wnt pathway in the Super TOPFlash luciferase reporter system (Firefly/renilla ratio) [6]: very similar properties (biological activity) to the initial sequence PEP16; also recorded: significantly reduce the activity | expression of Ctgf, a target gene of the Hippo/YAP/TAZ pathway [2, 10]: efficiently reduced the expression | relative expression level of aggrecan [2, 10]: favoured the induction of the expression | relative expression level of col2a1 (type 2 collagen) [2, 10]: favoured the induction of the expression | relative expression level of mmp3 [2, 10]: efficiently reduced the expression | relative expression level of mmp13 [2, 10]: efficiently reduced the expression | CamKII pathway activation (P-CamKII over total) [7]: increased the activation of the CamKII pathway

ATQKTYFRNNYN (PEP12)
specific alkaline phosphatase activity [8]: not able to increase the alkaline phosphatase activity | extracellular matrix mineralization (biochemical quantitation) [9]: not able to increase extracellular matrix mineralization

DRIGKKVKRWDMKIRH (PEP i) [PEP16 where L in position 3 and 14 were changed to an Isoleucine]
proteoglycans deposition in the extracellular matrix (Alcian blue, absorbance 650 nm) [1]: significantly increase the proteoglycans deposition | MMP3 expression [2]: significant decrease | YAP/TAZ target genes (CTGF) expression [2]: significant decrease | articular chondrocyte extracellular matrix genes (type II collagen and aggrecan) expression [2]: significant increase
